Measurements reported in patent US20260306506A1, “PYRIDO[4,3-D]PYRIMIDINE COMPOUNDS” (Pfizer Inc., priority 2023, published 2026).

Assays:
[1] = tested on: H358 (non-small cell lung cancer cell line); assay: KRAS Cell Titer Glo (CTG) viability assay, H358; assay type: cell-based; details: Homo sapiens, NCI-H358, 168 h, H358, 7-day; geometric mean when n>1
Description: (§1) The CellTiter-Glo® (CTG) Luminescent Cell Viability Assay is a homogeneous method of determining the number of viable cells in culture based on quantitation of the ATP present, an indicator of metabolically active cells. The CTG is designed for use with multi-well formats, making it ideal for automated high-throughput screening (HTS), cell proliferation and cytotoxicity assays. The homogeneous assay procedure involves adding the single reagent (CellTiter-Glo® Reagent) directly to cells cultured in serum-supplemented medium. Cell washing, removal of medium and multiple pipetting steps are not required. The system detects as few as 15 cells per well in a 384-well format in 10 minutes after adding reagent and mixing.
(§2) Cells are grown in humidified 5% CO2 incubator at 37° C. using the culture conditions outlined below. All cell culture media reagents were purchased from Gibco. Cell lines purchased from ATCC: H358 (non-small cell lung cancer cell line), SW620 (colorectal cancer cell line), PANC08.13 (RPM11640+10% FBS+10 units/ml Insulin, pancreatic cancer cell line). Test and control compounds are dispensed as nanoliter drops according to desired final concentrations in 0.1% DMSO using Echo Acoustic Dispenser onto 384 assay plates (Corning, Cat #3764) prior to cell seeding. Cells were seeded in 40 μL volume per well at the following cell densities (cells per well): H358 (300), SW620 (750), PANC 08.13 (600). Cells are incubated in the presence of compound for 7-days. Viability is determined on Day 7 using CellTiter-Glo® (CTG) Luminescent Cell Viability Assay (Promega). CTG is added to a final volume of 20 μl per well and incubated at room temperature for 15 minutes before luminescence is captured using an EnVision Reader with LUM384 US protocol. Data is analyzed using Activity Base to determine compound response and will be represented either as a percent effect (PCTEFF) or percent control (PCTOCTL) as described: Zero percent effect control (ZPE) (Negative control)—100% DMSO. Hundred percent effect (HPE) (Positive control)—1 μM Trametinib (GSK1120212, MEK inhibitor) (4 nl of 10 mM and 36 nl of DMSO per well). The following equations/nomenclature are used (% Effect; PCTEFF) and (% of Control; PCTOCTL): PCTEFF: 100*(Raw_Data_Value−HPE/ZPE−HPE), PCTOCTL: 100*Raw_Data_Value/User_Defined_Array), where the User_Defined_Array is either summarized HPE or ZPE.

[2] = tested on: KRAS G12C, KRAS G12D, and KRAS G12V receptors; assay: SPR binding, summary statement for KRAS mutants; details: alkylidenyl and/or haloalkylidenyl on R^1; statement in words
Description: (§3) No additional regeneration was used.
(§4) Compound dissociation was monitored for at least 3600 seconds. […] No additional regeneration was used.

[3] = biological target: T1, G12C GTPγS KRAS (aa2-184) (Homo sapiens, UniProt P01116, G12C); assay: SPR binding (Biacore), GTPγS-loaded KRAS G12C; details: for Kd: 10° C., geometric mean when n>1, read-out: KRasGTPgS G12C SPR KD; for KRasGTPgS G12C SPR t1/2: dissociative half-life, t1/2=0.693/koff
T1 construct: G12CGDP KRAS (aa2-184); made in house
Description: as §3, §4

[4] = biological target: T2, WT GTPγS KRAS (aa1-185) (Homo sapiens, UniProt P01116); assay: SPR binding (Biacore), GTPγS-loaded WT KRAS; details: for Kd: 10° C., geometric mean when n>1, read-out: KRasGTPgS SPR KD; for KRasGTPgS SPR t1/2: dissociative half-life, t1/2=0.693/koff
T2 construct: wild-type (WT) KRASGDP (aa1-185); made in house
Description: as §3, §4

[5] = biological target: T3, G12V GTPγS KRAS (aa2-184) (Homo sapiens, UniProt P01116, G12V); assay: SPR binding (Biacore), GTPγS-loaded KRAS G12V; details: for Kd: 10° C., geometric mean when n>1, read-out: KRasGTPgS G12V SPR KD; for KRasGTPgS G12V SPR t1/2: dissociative half-life, t1/2=0.693/koff
T3 construct: G12VGDP KRAS (aa2-184); made in house
Description: as §3, §4

[6] = biological target: T4, G12D GTPγS KRAS (aa1-185) (Homo sapiens, UniProt P01116, G12D); assay: SPR binding (Biacore), GTPγS-loaded KRAS G12D; details: for Kd: 10° C., geometric mean when n>1, read-out: KRasGTPgS G12D SPR KD; for KRasGTPgS G12D SPR t1/2: dissociative half-life, t1/2=0.693/koff
T4 construct: G12DGDP KRAS (aa1-185); made in house
Description: as §3, §4

[7] = tested on: SW620 (colorectal cancer cell line); assay: KRAS Cell Titer Glo (CTG) viability assay, SW620; assay type: cell-based; details: Homo sapiens, SW-620, 168 h, SW620, 7-day; geometric mean when n>1
Description: as §1, §2

[8] = tested on: pancreatic cancer, non-small cell lung cancer, and colorectal cancer; assay: CTG assay, summary statement for cancer cell lines; assay type: cell-based; details: alkylidenyl and/or haloalkylidenyl on R^1; statement in words
Description: as §1
Cells are grown in humidified 5% CO2 incubator at 37° C. using the culture conditions outlined below. All cell culture media reagents were purchased from Gibco. […] Viability is determined on Day 7 using CellTiter-Glo® (CTG) Luminescent Cell Viability Assay (Promega). CTG is added to a final volume of 20 μl per well and incubated at room temperature for 15 minutes before luminescence is captured using an EnVision Reader with LUM384 US protocol. Data is analyzed using Activity Base to determine compound response and will be represented either as a percent effect (PCTEFF) or percent control (PCTOCTL) as described: Zero percent effect control (ZPE) (Negative control)—100% DMSO. […]

[9] = tested on: PANC08.13 (pancreatic cancer cell line); assay: KRAS Cell Titer Glo (CTG) viability assay, Panc08.13; assay type: cell-based; details: Homo sapiens, PANC-08-13, 168 h, Panc08.13, 7-day; geometric mean when n>1
Description: as §1, §2

[10] = biological target: G12C GDP KRAS (aa2-184) (Homo sapiens, UniProt P01116, G12C); assay: biochemical
Description: (§5) The binding affinity and kinetics were measured by Surface Plasmon Resonance (SPR) using Biacore 8K or 8K+ (Cytiva, Marlborough, MA) instruments. Recombinant, C-terminal site-specific biotinylated, wild-type (WT) KRASGDP (aa1-185), G12DGDP KRAS (aa1-185), G12CGDP KRAS (aa2-184), G12VGDP KRAS (aa2-184), WT HRASGDP (aa2-184) and WT NRASGDP (aa2-185) proteins were purified in presence of 1 μM GDP. The GDP-loaded KRAS proteins then went through nucleotide exchange with GTPγS (a non-hydrolysable analog of GTP) in the presence of alkaline phosphatase beads to obtain WTGTPγS KRAS (aa1-185), G12DGTPγS KRAS (aa1-185), G12CGTPγS KRAS (aa2-184), G12VGTPγS KRAS (aa2-184), WT HRASGTPγS (aa2-184) and WT NRASGTPγS (aa2-185). Binding measurements were performed parallelly in sets of either WT/G12D/G12C/G12V KRAS or WT K/H/N RAS proteins in GDP- and/or GTPγS-loaded forms, respectively.
(§6) Biacore instrument was desorbed and docked with a Series S Sensor Chip SA. […] Compound binding kinetics were measured in either multi-cycle or single-cycle kinetic format.
(§7) A 2-fold, 10-point serial dilution of test compounds was set-up in a 96-well microplate (Greiner; Cat #650101) with a top concentration of either 10 μM or 100 μM. Binding kinetics was measured at 10° C. by injecting serial dilution of compounds onto both reference and RAS immobilized channels at a flow rate of 100 μL/min and association time of 90 seconds. Compound dissociation was monitored for at least 400 seconds during each cycle. […]
(§8) A 3-fold, 6-point serial dilution of compounds was set-up in a deep 96-well microplate (Greiner Bio; Cat #780201) with the highest concentration of 1 μM (concentration range: 0.004-1 μM). Binding kinetics was measured at 10° C. by injecting serial dilutions of compounds in increasing order onto reference as well as RAS immobilized channels at a flow rate of 100 μL/min and association time of 120 seconds. Compound dissociation was monitored for at least 3600 seconds. […]
(§9) Both MCK and SCK data were processed and analyzed using Biacore Insight evaluation software (Cytiva, Marlborough, MA)). […]

[11] = biological target: G12V GDP KRAS (aa2-184) (Homo sapiens, UniProt P01116, G12V); assay: biochemical
Description: as §5, §6, §7, §8, §9

[12] = biological target: T5, wild-type (WT) KRAS GDP (aa1-185) (Homo sapiens, UniProt P01116); assay: SPR binding (Biacore), GDP-loaded WT KRAS; details: 10° C., geometric mean when n>1
T5 construct: wild-type (WT) KRASGDP (aa1-185); made in house
Description: as §3, §4

[13] = biological target: G12D GDP KRAS (aa1-185) (Homo sapiens, UniProt P01116, G12D); assay: biochemical
Description: as §5, §6, §7, §8, §9

Row | IC50 [1] [pM] | binding affinities [2] | Kd [3] [pM] | KRasGTPgS G12C SPR t1/2 [3] [h] | Kd [4] [pM] | KRasGTPgS SPR t1/2 [4] [h] | Kd [5] [pM] | KRasGTPgS G12V SPR t1/2 [5] [h] | Kd [6] [pM] | KRasGTPgS G12D SPR t1/2 [6] [h] | IC50 [7] [pM] | IC50 [9] [pM] | Kd [10] [pM] | Kd [11] [pM] | Kd [12] [pM] | Kd [13] [pM] | SMILES | cellular activities against certain tumors [8]
1 | 1200 | may enhance | < 14.5 | >192.7 | < 10.6 | >192.7 | < 9.7 | >192.7 | < 6.1 | >192.7 | 2300 | < 500 | – | – | – | – | C#Cc1c(F)ccc2cc(O)cc(-c3nc4c5c(nc(OC[C@@]67CCCN6C/C(=C/F)C7)nc5c3F)N3CCCOC[C@H]3CO4)c12 [Example 34, 5-ethynyl-6-fluoro-4-[(8aS)-4-fluoro-2-{[(2E,7aS)-2-(fluoromethylidene)tetrahydro-1H-pyrrolizin-7a(5H)-yl]methoxy}-8a,9,12,13-tetrahydro-8H,11H-7,10-dioxa-1,3,6,13a-tetraazanaphtho[1,8-ab]heptalen-5-yl]naphthalen-2-ol] | may enhance
2 | 13100 | – | 372 | 11.0 | 475 | 6.0 | 316 | 8.9 | 404 | 3.6 | 18700 | 2700 | 67 | 286 | 40 | 289 | C#Cc1c(F)ccc2cc(O)cc(-c3nc4c5c(nc(OC[C@@]67CCCN6CC(=C)C7)nc5c3F)N3CCCC[C@H]3CO4)c12 [Example 36, 5-ethynyl-6-fluoro-4-[(8aS)-4-fluoro-2-{[(7aS)-2-methylidenetetrahydro-1H-pyrrolizin-7a(5H)-yl]methoxy}-8,8a,9,10,11,12-hexahydro-7-oxa-1,3,6,12a-tetraazabenzo[4,5]cyclohepta[1,2,3-de]naphthalen-5-yl]naphthalen-2-ol] | –
3 | 40500 | – | 3020 | 0.4 | 3500 | 0.3 | 2070 | 0.4 | 1270 | 0.4 | 138000 | 18300 | 10 | 56 | 15 | 18 | C#Cc1c(F)ccc2cc(O)cc(-c3nc4c5c(nc(OC[C@@]67CCCN6CC(=C)C7)nc5c3F)N(CC)CCO4)c12 [Example 37, 4-(10-ethyl-4-fluoro-2-{[(7aS)-2-methylidenetetrahydro-1H-pyrrolizin-7a(5H)-yl]methoxy}-9,10-dihydro-8H-7-oxa-1,3,6,10-tetraazacyclohepta[1,2,3-de]naphthalen-5-yl)-5-ethynyl-6-fluoronaphthalen-2-ol] | –
